# Laboratory results reported in ChEMBL document CHEMBL4507311, “Data for DCP probe A-1155463” (2021).
# The source made the active and inactive calls. The calls are words filed in the database; no cut-off is given here.
# Key:
# [1] = biological target: Bcl-2-like protein 1 (Homo sapiens, UniProt Q07817); assay: Time-resolved fluorescence energy transfer (TR-FRET) with BCL2L1
# [2] = biological target: Prostaglandin G/H synthase 1 (Homo sapiens) (UniProt P23219); assay: COX1(h) Eurofins-Cerep enzyme and uptake assay; conditions: Compound concentration 10.0 uM
# [3] = biological target: Prostaglandin G/H synthase 2 (Homo sapiens) (UniProt P35354); assay: COX2(h) Eurofins-Cerep enzyme and uptake assay; conditions: Compound concentration 10.0 uM
# [4] = biological target: Sodium/potassium-transporting ATPase (Sus scrofa) (UniProt P05027+P05024+D2WKD8+D2WKD7+F1ST41); assay: ATPase (Na+/K+) Eurofins-Cerep enzyme and uptake assay; type: protein-complex assay; conditions: Compound concentration 10.0 uM
# [5] = biological target: Adenosine receptor A2a (Homo sapiens) (UniProt P29274); assay: A2A (h) Eurofins-Cerep binding assay; set-up: ligand concentration 6 nM; conditions: filed as agonist, Compound concentration 10.0 uM
# [6] = biological target: Adenosine receptor A2b (Homo sapiens) (UniProt P29275); assay: A2B (h) Eurofins-Cerep binding assay; set-up: ligand concentration 5 nM; conditions: filed as antagonist, Compound concentration 10.0 uM
# [7] = biological target: Alpha-1A adrenergic receptor (Homo sapiens) (UniProt P35348); assay: Alpha1A (h) Eurofins-Cerep binding assay; set-up: ligand concentration 0.1 nM; conditions: filed as antagonist, Compound concentration 10.0 uM
# [8] = biological target: Beta-2 adrenergic receptor (Homo sapiens) (UniProt P07550); assay: Beta2 (h) Eurofins-Cerep binding assay; set-up: ligand concentration 0.3 nM; conditions: filed as antagonist, Compound concentration 10.0 uM
# [9] = biological target: Type-2 angiotensin II receptor (Homo sapiens) (UniProt P50052); assay: AT2 (h) Eurofins-Cerep binding assay; set-up: ligand concentration 0.01 nM; conditions: filed as agonist, Compound concentration 10.0 uM
# [10] = biological target: Cannabinoid receptor 1 (Homo sapiens) (UniProt P21554); assay: CB1 (h) Eurofins-Cerep binding assay; set-up: ligand concentration 0.5 nM; conditions: filed as agonist, Compound concentration 10.0 uM
# [11] = biological target: Cholecystokinin receptor type A (Homo sapiens) (UniProt P32238); assay: CCK1 (CCKA) (h) Eurofins-Cerep binding assay; set-up: ligand concentration 0.08 nM; conditions: filed as agonist, Compound concentration 10.0 uM
# [12] = biological target: D(1A) dopamine receptor (Homo sapiens) (UniProt P21728); assay: D1 (h) Eurofins-Cerep binding assay; set-up: ligand concentration 0.3 nM; conditions: filed as antagonist, Compound concentration 10.0 uM
# [13] = biological target: Endothelin-1 receptor (Homo sapiens) (UniProt P25101); assay: ETA (h) Eurofins-Cerep binding assay; set-up: ligand concentration 0.03 nM; conditions: filed as agonist, Compound concentration 10.0 uM
# [14] = biological target: Histamine H2 receptor (Homo sapiens) (UniProt P25021); assay: H2 (h) Eurofins-Cerep binding assay; set-up: ligand concentration 0.075 nM; conditions: filed as antagonist, Compound concentration 10.0 uM
# [15] = biological target: Muscarinic acetylcholine receptor M1 (Homo sapiens) (UniProt P11229); assay: M1 (h) Eurofins-Cerep binding assay; set-up: ligand concentration 2 nM; conditions: filed as antagonist, Compound concentration 10.0 uM
# [16] = biological target: Muscarinic acetylcholine receptor M3 (Homo sapiens) (UniProt P20309); assay: M3 (h) Eurofins-Cerep binding assay; set-up: ligand concentration 0.2 nM; conditions: filed as antagonist, Compound concentration 10.0 uM
# [17] = biological target: T1, Muscarinic acetylcholine receptor M4 (Homo sapiens) (UniProt P08173); assay: M4 (h) Eurofins-Cerep binding assay; set-up: ligand concentration 0.2 nM; conditions: filed as antagonist, Compound concentration 10.0 uM
# T1 sequence (whole entry): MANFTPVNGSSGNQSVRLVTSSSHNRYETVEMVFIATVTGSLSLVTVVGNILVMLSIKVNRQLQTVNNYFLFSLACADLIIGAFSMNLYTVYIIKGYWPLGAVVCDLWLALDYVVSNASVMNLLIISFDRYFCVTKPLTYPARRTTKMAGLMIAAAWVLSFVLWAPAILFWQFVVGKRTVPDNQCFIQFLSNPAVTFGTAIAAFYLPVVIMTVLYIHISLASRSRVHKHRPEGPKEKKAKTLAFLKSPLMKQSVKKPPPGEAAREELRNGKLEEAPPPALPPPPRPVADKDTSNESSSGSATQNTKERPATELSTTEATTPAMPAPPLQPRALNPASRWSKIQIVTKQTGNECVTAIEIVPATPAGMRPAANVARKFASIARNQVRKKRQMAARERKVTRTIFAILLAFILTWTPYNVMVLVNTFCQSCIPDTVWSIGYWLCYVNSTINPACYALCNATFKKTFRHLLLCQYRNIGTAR
# [18] = biological target: Substance-P receptor (Homo sapiens) (UniProt P25103); assay: NK1 (h) Eurofins-Cerep binding assay; set-up: ligand concentration 0.05 nM; conditions: filed as agonist, Compound concentration 10.0 uM
# [19] = biological target: Substance-K receptor (Homo sapiens) (UniProt P21452); assay: NK2 (h) Eurofins-Cerep binding assay; set-up: ligand concentration 0.1 nM; conditions: filed as agonist, Compound concentration 10.0 uM
# [20] = biological target: Kappa-type opioid receptor (Homo sapiens) (UniProt P41145); assay: kappa (h) (KOP) Eurofins-Cerep binding assay; set-up: ligand concentration 0.5 nM; conditions: filed as agonist, Compound concentration 10.0 uM
# [21] = biological target: Prostaglandin E2 receptor EP2 subtype (Homo sapiens) (UniProt P43116); assay: EP2 (h) Eurofins-Cerep binding assay; set-up: ligand concentration 3 nM; conditions: filed as agonist, Compound concentration 10.0 uM
# [22] = biological target: 5-hydroxytryptamine receptor 2A (Homo sapiens) (UniProt P28223); assay: 5-HT2A (h) Eurofins-Cerep binding assay; set-up: ligand concentration 0.5 nM; conditions: filed as antagonist, Compound concentration 10.0 uM
# [23] = biological target: 5-hydroxytryptamine receptor 2B (Homo sapiens) (UniProt P41595); assay: 5-HT2B (h) Eurofins-Cerep binding assay; set-up: ligand concentration 0.2 nM; conditions: filed as agonist, Compound concentration 10.0 uM
# [24] = biological target: T2, 5-hydroxytryptamine receptor 3A (Homo sapiens) (UniProt P46098); assay: 5-HT3 (h) Eurofins-Cerep binding assay; set-up: ligand concentration 0.5 nM; conditions: filed as antagonist, Compound concentration 10.0 uM
# T2 sequence (whole entry): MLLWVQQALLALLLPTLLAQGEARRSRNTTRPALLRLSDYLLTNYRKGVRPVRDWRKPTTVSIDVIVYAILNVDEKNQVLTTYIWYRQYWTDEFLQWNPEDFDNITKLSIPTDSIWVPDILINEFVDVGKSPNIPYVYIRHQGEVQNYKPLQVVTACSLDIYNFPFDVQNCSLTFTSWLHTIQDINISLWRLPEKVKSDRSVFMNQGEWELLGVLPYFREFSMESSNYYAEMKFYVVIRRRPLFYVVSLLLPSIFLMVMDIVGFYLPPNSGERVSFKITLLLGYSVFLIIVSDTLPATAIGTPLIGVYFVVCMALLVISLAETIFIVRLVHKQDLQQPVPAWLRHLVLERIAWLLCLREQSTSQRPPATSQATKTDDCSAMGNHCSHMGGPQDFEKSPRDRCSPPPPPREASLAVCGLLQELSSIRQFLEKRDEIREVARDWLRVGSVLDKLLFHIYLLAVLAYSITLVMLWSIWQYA
# [25] = biological target: Estrogen receptor (Homo sapiens) (UniProt P03372); assay: Estrogen ER alpha (h) Eurofins-Cerep binding assay; set-up: ligand concentration 0.5 nM; conditions: filed as agonist, Compound concentration 10.0 uM
# [26] = biological target: Androgen receptor (Homo sapiens) (UniProt P10275); assay: AR (h) Eurofins-Cerep binding assay; set-up: ligand concentration 1 nM; conditions: filed as agonist, Compound concentration 10.0 uM
# [27] = biological target: Vasoactive intestinal polypeptide receptor 1 (Homo sapiens) (UniProt P32241); assay: VPAC1 (VIP1) (h) Eurofins-Cerep binding assay; set-up: ligand concentration 0.04 nM; conditions: filed as agonist, Compound concentration 10.0 uM
# [28] = biological target: L-type Ca2+ channel (diltiazem site, benzothiazepines) (Rattus norvegicus, UniProt P22002+P27732+Q02485); assay: Ca2+ channel (L, diltiazem site) (benzothiazepines) Eurofins-Cerep binding assay; type: protein assay; set-up: incubation time 120 min, incubation temperature RT, ligand concentration 15 nM; conditions: rat cerebral cortex, probe [3H]diltiazem (15 nM), compound concentration 10 uM, read-out: % Inhibition of Control Specific Binding (Mean n=2)
# [29] = biological target: Sulfonylurea receptors; K-ATP channels (Rattus norvegicus) (UniProt Q63563+P70673+Q63664+Q09429); assay: KATP channel Eurofins-Cerep binding assay; type: protein-complex assay; set-up: ligand concentration 0.1 nM; conditions: filed as antagonist, Compound concentration 10.0 uM
# [30] = biological target: voltage-gated Na+ channel (site 2) (Rattus norvegicus, UniProt F1LQQ7+O08562+O88420+O88457+P04774+P04775+P08104+P15389+P15390+Q62968); assay: Na+ channel (site 2) Eurofins-Cerep binding assay; type: protein assay; set-up: incubation time 60 min, incubation temperature 37°C, ligand concentration 10 nM; conditions: rat cerebral cortex, probe [3H]batrachotoxin (10 nM), compound concentration 10 uM, read-out: % Inhibition of Control Specific Binding (Mean n=2)
# Estrogen receptor (Homo sapiens), sequence (P03372 whole entry): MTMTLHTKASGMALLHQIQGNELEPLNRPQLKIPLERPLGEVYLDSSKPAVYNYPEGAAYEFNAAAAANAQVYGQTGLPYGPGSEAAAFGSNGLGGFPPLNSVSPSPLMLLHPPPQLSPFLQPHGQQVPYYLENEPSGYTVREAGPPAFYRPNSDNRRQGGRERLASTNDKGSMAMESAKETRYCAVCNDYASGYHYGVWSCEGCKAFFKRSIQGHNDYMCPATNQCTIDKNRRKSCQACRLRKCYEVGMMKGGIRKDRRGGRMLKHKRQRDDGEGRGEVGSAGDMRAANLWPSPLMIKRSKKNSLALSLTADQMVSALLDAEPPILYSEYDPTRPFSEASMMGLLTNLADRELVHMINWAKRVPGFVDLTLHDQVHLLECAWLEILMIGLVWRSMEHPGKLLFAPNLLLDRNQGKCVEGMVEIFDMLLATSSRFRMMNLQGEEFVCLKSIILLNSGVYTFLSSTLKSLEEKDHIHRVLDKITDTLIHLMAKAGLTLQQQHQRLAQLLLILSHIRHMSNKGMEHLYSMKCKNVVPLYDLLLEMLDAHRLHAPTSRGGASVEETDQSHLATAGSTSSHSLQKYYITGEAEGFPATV
# Kappa-type opioid receptor (Homo sapiens), sequence (P41145 whole entry): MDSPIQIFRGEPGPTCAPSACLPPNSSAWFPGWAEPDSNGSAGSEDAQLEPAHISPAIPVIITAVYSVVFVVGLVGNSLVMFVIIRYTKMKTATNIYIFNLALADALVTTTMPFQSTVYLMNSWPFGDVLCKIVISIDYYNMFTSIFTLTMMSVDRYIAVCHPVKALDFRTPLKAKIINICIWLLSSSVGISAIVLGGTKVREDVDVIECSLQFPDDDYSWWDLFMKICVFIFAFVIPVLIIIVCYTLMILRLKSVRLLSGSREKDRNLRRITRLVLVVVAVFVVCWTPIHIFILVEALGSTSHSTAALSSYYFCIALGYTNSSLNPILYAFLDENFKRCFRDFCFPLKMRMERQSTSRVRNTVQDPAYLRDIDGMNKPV
# Cannabinoid receptor 1 (Homo sapiens), sequence (P21554 whole entry): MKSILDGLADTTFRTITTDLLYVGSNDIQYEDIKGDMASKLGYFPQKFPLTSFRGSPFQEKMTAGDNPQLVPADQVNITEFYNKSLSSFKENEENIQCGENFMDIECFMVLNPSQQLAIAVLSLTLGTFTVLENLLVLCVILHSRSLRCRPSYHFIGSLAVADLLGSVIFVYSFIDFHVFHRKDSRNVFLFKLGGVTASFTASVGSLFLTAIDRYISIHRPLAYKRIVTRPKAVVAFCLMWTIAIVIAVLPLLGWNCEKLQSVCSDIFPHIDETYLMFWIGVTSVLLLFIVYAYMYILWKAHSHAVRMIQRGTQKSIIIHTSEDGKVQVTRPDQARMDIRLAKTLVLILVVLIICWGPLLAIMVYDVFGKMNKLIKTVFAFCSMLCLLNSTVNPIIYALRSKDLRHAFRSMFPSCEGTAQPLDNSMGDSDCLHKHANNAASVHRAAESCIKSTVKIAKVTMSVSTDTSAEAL
# Muscarinic acetylcholine receptor M3 (Homo sapiens), sequence (P20309 whole entry, looked up): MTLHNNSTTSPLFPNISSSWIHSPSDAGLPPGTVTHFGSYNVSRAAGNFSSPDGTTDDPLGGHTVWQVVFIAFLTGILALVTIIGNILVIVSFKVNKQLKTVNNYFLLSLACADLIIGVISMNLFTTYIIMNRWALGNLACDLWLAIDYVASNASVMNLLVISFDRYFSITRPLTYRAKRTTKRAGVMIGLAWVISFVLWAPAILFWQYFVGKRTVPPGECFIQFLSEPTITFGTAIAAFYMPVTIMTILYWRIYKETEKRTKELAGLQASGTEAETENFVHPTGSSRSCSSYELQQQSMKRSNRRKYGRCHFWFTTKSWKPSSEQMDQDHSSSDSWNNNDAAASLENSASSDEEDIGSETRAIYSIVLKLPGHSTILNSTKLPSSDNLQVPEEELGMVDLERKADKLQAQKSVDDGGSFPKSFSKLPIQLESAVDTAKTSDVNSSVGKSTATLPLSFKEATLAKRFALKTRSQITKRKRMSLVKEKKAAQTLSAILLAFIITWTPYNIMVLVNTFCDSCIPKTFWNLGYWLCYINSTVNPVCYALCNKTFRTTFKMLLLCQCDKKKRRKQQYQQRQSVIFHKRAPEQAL
# Cholecystokinin receptor type A (Homo sapiens), sequence (P32238 whole entry): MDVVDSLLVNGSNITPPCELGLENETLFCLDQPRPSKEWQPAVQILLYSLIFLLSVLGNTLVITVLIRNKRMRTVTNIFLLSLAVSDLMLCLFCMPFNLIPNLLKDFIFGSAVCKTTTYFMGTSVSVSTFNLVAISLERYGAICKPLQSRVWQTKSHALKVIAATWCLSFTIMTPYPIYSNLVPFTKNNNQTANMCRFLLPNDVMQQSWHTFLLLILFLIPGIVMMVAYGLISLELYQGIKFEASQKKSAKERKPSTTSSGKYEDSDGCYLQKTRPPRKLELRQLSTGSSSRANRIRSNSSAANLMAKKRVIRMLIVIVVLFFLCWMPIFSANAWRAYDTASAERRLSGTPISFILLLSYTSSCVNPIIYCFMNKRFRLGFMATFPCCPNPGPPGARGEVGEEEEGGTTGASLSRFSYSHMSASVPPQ
# Alpha-1A adrenergic receptor (Homo sapiens), sequence (P35348 whole entry): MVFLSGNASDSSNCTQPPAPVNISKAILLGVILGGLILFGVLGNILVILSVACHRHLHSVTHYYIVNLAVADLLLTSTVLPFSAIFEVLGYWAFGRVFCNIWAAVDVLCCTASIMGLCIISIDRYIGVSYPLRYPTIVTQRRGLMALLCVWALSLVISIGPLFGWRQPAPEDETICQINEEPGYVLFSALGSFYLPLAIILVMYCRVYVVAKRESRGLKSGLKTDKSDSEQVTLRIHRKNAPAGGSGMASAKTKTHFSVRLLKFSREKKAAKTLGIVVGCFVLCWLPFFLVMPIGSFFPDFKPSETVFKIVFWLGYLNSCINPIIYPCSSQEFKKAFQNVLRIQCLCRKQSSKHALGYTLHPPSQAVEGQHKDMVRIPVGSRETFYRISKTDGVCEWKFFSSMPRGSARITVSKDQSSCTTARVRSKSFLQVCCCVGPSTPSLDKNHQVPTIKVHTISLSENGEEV
# Prostaglandin E2 receptor EP2 subtype (Homo sapiens), sequence (P43116 whole entry): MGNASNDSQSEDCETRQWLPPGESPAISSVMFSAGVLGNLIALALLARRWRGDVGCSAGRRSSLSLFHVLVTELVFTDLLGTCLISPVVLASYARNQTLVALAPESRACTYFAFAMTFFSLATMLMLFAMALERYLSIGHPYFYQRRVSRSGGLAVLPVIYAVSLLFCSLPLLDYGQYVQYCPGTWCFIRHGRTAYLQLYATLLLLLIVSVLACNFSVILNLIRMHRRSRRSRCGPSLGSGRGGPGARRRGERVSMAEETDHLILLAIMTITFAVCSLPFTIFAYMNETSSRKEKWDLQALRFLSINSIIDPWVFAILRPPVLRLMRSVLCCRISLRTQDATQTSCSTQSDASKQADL
# Bcl-2-like protein 1, sequence (Q07817 whole entry): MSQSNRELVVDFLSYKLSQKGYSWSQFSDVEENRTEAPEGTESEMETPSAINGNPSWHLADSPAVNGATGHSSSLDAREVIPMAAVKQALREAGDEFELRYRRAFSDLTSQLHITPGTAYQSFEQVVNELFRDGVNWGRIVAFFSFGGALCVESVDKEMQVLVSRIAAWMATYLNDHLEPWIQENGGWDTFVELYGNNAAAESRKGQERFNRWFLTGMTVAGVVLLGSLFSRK
# D(1A) dopamine receptor (Homo sapiens), sequence (P21728 whole entry): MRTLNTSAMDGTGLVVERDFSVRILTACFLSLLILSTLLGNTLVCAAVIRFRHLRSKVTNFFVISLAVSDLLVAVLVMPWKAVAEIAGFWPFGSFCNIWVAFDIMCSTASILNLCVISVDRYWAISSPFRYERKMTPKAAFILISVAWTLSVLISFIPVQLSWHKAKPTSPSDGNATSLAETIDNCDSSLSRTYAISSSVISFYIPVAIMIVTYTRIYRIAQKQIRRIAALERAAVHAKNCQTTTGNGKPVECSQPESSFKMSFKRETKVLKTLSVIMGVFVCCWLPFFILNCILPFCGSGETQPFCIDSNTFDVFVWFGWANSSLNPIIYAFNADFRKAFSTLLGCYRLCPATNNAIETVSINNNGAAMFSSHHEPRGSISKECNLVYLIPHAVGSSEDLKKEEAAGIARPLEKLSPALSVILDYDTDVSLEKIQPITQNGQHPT
# Substance-P receptor (Homo sapiens), sequence (P25103 whole entry): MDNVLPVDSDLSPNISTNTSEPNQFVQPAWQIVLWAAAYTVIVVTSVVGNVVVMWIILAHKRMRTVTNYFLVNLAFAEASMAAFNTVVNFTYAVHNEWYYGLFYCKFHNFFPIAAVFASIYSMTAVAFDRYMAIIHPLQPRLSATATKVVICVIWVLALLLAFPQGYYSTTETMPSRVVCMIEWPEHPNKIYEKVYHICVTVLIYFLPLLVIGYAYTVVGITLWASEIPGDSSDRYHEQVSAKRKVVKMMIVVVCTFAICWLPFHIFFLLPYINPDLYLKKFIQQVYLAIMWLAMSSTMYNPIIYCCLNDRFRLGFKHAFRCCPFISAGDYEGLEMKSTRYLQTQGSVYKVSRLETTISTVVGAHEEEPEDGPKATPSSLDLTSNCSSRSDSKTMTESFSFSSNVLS
# Histamine H2 receptor (Homo sapiens), sequence (P25021 whole entry): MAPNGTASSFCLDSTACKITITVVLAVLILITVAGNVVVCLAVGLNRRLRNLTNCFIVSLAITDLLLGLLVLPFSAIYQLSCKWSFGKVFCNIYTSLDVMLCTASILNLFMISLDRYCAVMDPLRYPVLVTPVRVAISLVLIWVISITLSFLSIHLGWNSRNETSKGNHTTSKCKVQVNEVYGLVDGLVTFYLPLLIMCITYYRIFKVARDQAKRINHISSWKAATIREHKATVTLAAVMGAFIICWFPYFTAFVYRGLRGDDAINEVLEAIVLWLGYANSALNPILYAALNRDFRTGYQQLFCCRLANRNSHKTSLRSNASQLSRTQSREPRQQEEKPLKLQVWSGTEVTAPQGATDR
SMILES,IC50 [1],% Inhibition of Control Values (Mean n=2) [2],% Inhibition of Control Values (Mean n=2) [3],% Inhibition of Control Values (Mean n=2) [4],% Inhibition of Control Specific Binding (Mean n=2) [5],% Inhibition of Control Specific Binding (Mean n=2) [6],% Inhibition of Control Specific Binding (Mean n=2) [7],% Inhibition of Control Specific Binding (Mean n=2) [8],% Inhibition of Control Specific Binding (Mean n=2) [9],% Inhibition of Control Specific Binding (Mean n=2) [10],% Inhibition of Control Specific Binding (Mean n=2) [11],% Inhibition of Control Specific Binding (Mean n=2) [12],% Inhibition of Control Specific Binding (Mean n=2) [13],% Inhibition of Control Specific Binding (Mean n=2) [14],% Inhibition of Control Specific Binding (Mean n=2) [15],% Inhibition of Control Specific Binding (Mean n=2) [16],% Inhibition of Control Specific Binding (Mean n=2) [17],% Inhibition of Control Specific Binding (Mean n=2) [18],% Inhibition of Control Specific Binding (Mean n=2) [19],% Inhibition of Control Specific Binding (Mean n=2) [20],further results
CN(C)CC#Cc1ccc(OCCCc2sc(N3CCc4cccc(C(=O)Nc5nc6ccccc6s5)c4C3)nc2C(=O)O)c(F)c1 [A-1155463],0.55 nM (active),39.5%,62.2%,2%,51.8%,32.8%,6.7%,-7%,1.1%,2.6%,98.9%,26.2%,-2.2%,-11.6%,19.1%,17.4%,13.8%,3.3%,25.6%,34.4%,"% Inhibition of Control Specific Binding (Mean n=2) [21]: 33.8%; % Inhibition of Control Specific Binding (Mean n=2) [22]: 44.3%; % Inhibition of Control Specific Binding (Mean n=2) [23]: -46.8%; % Inhibition of Control Specific Binding (Mean n=2) [24]: 2%; % Inhibition of Control Specific Binding (Mean n=2) [25]: 11.9%; % Inhibition of Control Specific Binding (Mean n=2) [26]: -1.8%; % Inhibition of Control Specific Binding (Mean n=2) [27]: -8.1%; inhibition at 120 min, 10 µM [28]: 10.8%; % Inhibition of Control Specific Binding (Mean n=2) [29]: 27.4%; inhibition at 60 min, 10 µM [30]: 32.3%"
O=C(Nc1nc2ccccc2s1)c1cccc2c1CN(c1nc(C(=O)O)c(CCOc3ccc(-n4ncc5cncnc54)cc3)s1)CC2 [A-1107969],270 nM (not active),68.2%,65.5%,12.6%,28.3%,-14.8%,-6.1%,-6.9%,1.5%,-4.1%,68.9%,3.5%,-5.1%,-11%,-1.6%,-4.4%,8.6%,8.7%,5.3%,17%,"% Inhibition of Control Specific Binding (Mean n=2) [21]: 60.3%; % Inhibition of Control Specific Binding (Mean n=2) [22]: -0.6%; % Inhibition of Control Specific Binding (Mean n=2) [23]: -44.2%; % Inhibition of Control Specific Binding (Mean n=2) [24]: -5.7%; % Inhibition of Control Specific Binding (Mean n=2) [25]: 8.4%; % Inhibition of Control Specific Binding (Mean n=2) [26]: -12.1%; % Inhibition of Control Specific Binding (Mean n=2) [27]: -8.2%; inhibition at 120 min, 10 µM [28]: 16.2%; % Inhibition of Control Specific Binding (Mean n=2) [29]: 15.8%; inhibition at 60 min, 10 µM [30]: 3.3%"
